The results in this text go back to US4180655A, “Nitrosourea derivatives” (Suami; Tetsuo, priority 1974, dated 1979).

The term ILS denotes how much longer treated animals lived than controls.

In this assay the test system is Leukemia L1210 cells. The experiment in a line: Chemotherapeutic effect of nitrosourea derivatives on leukemia L1210 in mice. Format: in vivo, mice (BDF1/BDF). Details: Volume of ascites, Treated: unit not given here. An excerpt:
Chemotherapeutic effect of a variety of the nitrosourea derivatives of the formula I according to this invention on leukemia L1210 in mice were investigated by the following method and materials.
A--BDF1 mice (about 6 week-aged; body weight: 22±1 g); each experimental group was composed of 2 male mice.
B--BDF1 mice (about 7 week-aged; body weight: 21±2 g); each experimental group was composed of 3 male mice.
C--BDF mice (about 7 week-aged; body weight: 22±2 g); each experimental group was composed of 2 male mice.
D--BDF mice (about 6 week-aged; body weight: 21±2 g); each experimental group was composed of 3 male mice.
E--BDF1 mice (about six week-aged; body weight 20±1 g); each experimental group was composed of 3 female mice.
F--BDF1 mice (about six week-aged; body weight 21±1 g); each experimental group was composed of 3 male mice.
A--Leukemia L1210 cells (2.1×10^6 cells/ 0.05 ml/mouse) were intraperitoneally inoculated.
B--Leukemia L1210 cells (1.9×10^6 cells/0.05 ml/mouse) were intraperitoneally inoculated.
C--Leukemia L1210 cells (1.2×10^6 cells/0.05 ml/mouse) were intraperitoneally inoculated.
A--The test compound was dissolved in a physiological saline solution and administered intraperitoneally at a volume of 0.1 ml/mouse. The administration was made at once/day, from 24 hours after i.p. inoculation of L1210 cells, for 3 days. The effect of test compound was assessed by mean survival days of mice, percent increase in life-span, anatomical findings involving the volume of ascites.
B--The same as that used in A except that the drug administration was continued for 5 days.
C--The same as that used in A except that the test compound was suspended in 0.5% CMC solution and that the drug administration was continued for 5 days.
D--The same as that used in A except that the test compound was dissolved in distilled water for injection purposes.
The percentage increase in life-span (ILS) was calculated as follows:
Percentage increase in life-span (ILS)=T-C/C×100
T: The mean survival days of the treated animals.
C: The mean survival days of the untreated control.

Where [1] appears, read: 8 mg/kg i.p. once/day for 3 days (procedure A, saline).
Where [2] appears, read: 16 mg/kg i.p. once/day for 3 days (procedure A, saline).
The mark [3] stands for this setting: Mus musculus, L1210, ip, 72 h, 8 mg/kg i.p. once/day for 3 days (procedure A, saline), read-out: Percentage increase in life-span (ILS).
Where [4] appears, read: 100 mg/kg i.p. once/day for 3 days (procedure D, distilled water).
Where [5] appears, read: 200 mg/kg i.p. once/day for 3 days (procedure D, distilled water).
Setting [6] is: 400 mg/kg i.p. once/day for 3 days (procedure D, distilled water).
Setting [7] is: 1 mg/kg i.p. once/day for 3 days (procedure A, saline).
The mark [8] stands for this setting: 2 mg/kg i.p. once/day for 3 days (procedure A, saline).
[9] abbreviates: 4 mg/kg i.p. once/day for 3 days (procedure A, saline).
Setting [10] is: 6 mg/kg i.p. once/day for 3 days (procedure A, saline).
Where [11] appears, read: 10 mg/kg i.p. once/day for 3 days (procedure A, saline).
Where [12] appears, read: 20 mg/kg i.p. once/day for 3 days (procedure A, saline).
The mark [13] stands for this setting: 30 mg/kg i.p. once/day for 3 days (procedure A, saline).
Setting [14] is: 50 mg/kg i.p. once/day for 3 days (procedure A, saline).
Setting [15] is: 100 mg/kg i.p. once/day for 3 days (procedure A, saline).
Where [16] appears, read: 150 mg/kg i.p. once/day for 3 days (procedure A, saline).
The mark [17] stands for this setting: 200 mg/kg i.p. once/day for 3 days (procedure A, saline).

Molecules are shown by their SMILES. Like-named read-outs stand apart in the source and are kept apart here.

For `O=NN(CCCl)C(=O)N[C@@H](CO)[C@@H](O)[C@H](O)[C@H](O)CO` [Compound 9, N-carbamoyl-N'-(2-chloroethyl)-N'-nitroso-D-glucosaminol], the “Survival days, Treated (mean)” value by setting is: under setting [1], 18.0 days; under setting [2], more than 53.7 days. Further, the “Volume of ascites, Treated” value was 0 under setting [1] and 0 under setting [2]. Moreover, the ILS at 8 mg/kg under setting [3] is 68.2%. Moreover, the increase in lifespan (ILS) at 16 mg/kg (Mus musculus, L1210, ip, 72 h, 16 mg/kg i.p. once/day for 3 days (procedure A, saline), read-out: Percentage increase in life-span (ILS)) is more than 402%.

Regarding `CN(N=O)C(=O)N[C@@H](CO)[C@@H](O)[C@H](O)[C@H](O)CO` [Compound 12, N-carbamoyl-N'-methyl-N'-nitroso-D-glucosaminol, reference compound], the “Survival days, Treated (mean)” value is, setting by setting: under setting [4], 13.9 days; under setting [5], 15.0 days; under setting [6], 13.4 days. Further, the “Volume of ascites, Treated” value by setting is: under setting [4], 3.0; under setting [5], 4.0; under setting [6], 3.4. Also, for the setting “Mus musculus, L1210, ip, 72 h, 100 mg/kg i.p. once/day for 3 days (procedure D, distilled water), read-out: Percentage increase in life-span (ILS)”, the ILS at 100 mg/kg turned out to be 30%. Moreover, under “Mus musculus, L1210, ip, 72 h, 200 mg/kg i.p. once/day for 3 days (procedure D, distilled water), read-out: Percentage increase in life-span (ILS)”, the ILS at 200 mg/kg stood at 40%. The ILS at 400 mg/kg (Mus musculus, L1210, ip, 72 h, 400 mg/kg i.p. once/day for 3 days (procedure D, distilled water), read-out: Percentage increase in life-span (ILS)) turned out to be 25%.

As for `O=NN(CCCl)C(=O)N[C@H]1[C@H](O)[C@@H](O)[C@H](O)[C@@H](O)[C@@H]1O` [Compound 5, 1-(2-chloroethyl)-1-nitroso-3-(1N,3,5/2,4,6-pentahydroxycyclohexyl)urea], the “Survival days, Treated (mean)” value runs as follows: under setting [7], 12.0 days; under setting [8], 12.5 days; under setting [9], 13.0 days; under setting [10], 14.0 days; under setting [1], 16.0 days; under setting [11], 15.5 days. Further, the “Survival days, Treated (mean)” value under setting [12] is on record as more than 61.1 days and the “Survival days, Treated (mean)” value under setting [13] was found to be 11.6 days. For the same molecule, the “Volume of ascites, Treated” value stood at 4.5 under setting [7]; 4.0 under setting [8]; 2.8 under setting [9]; 2.0 under setting [10]; 2.5 under setting [1]; 0 under setting [11]. The “Volume of ascites, Treated” value reads like this: under setting [12], 0; under setting [13], 0. Also, the ILS at 1 mg/kg (Mus musculus, L1210, ip, 72 h, 1 mg/kg i.p. once/day for 3 days (procedure A, saline), read-out: Percentage increase in life-span (ILS)) is 23.7%. The ILS at 2 mg/kg (Mus musculus, L1210, ip, 72 h, 2 mg/kg i.p. once/day for 3 days (procedure A, saline), read-out: Percentage increase in life-span (ILS)) was 28.9%. Besides, the ILS at 4 mg/kg (Mus musculus, L1210, ip, 72 h, 4 mg/kg i.p. once/day for 3 days (procedure A, saline), read-out: Percentage increase in life-span (ILS)) worked out at 34%. Further, the increase in lifespan (ILS) at 6 mg/kg (Mus musculus, L1210, ip, 72 h, 6 mg/kg i.p. once/day for 3 days (procedure A, saline), read-out: Percentage increase in life-span (ILS)) is 44.3%. Besides, the ILS at 8 mg/kg under setting [3] worked out at 64.9%. The ILS at 10 mg/kg (Mus musculus, L1210, ip, 72 h, 10 mg/kg i.p. once/day for 3 days (procedure A, saline), read-out: Percentage increase in life-span (ILS)) is 59.8%. Further, the ILS at 20 mg/kg (Mus musculus, L1210, ip, 72 h, 20 mg/kg i.p. once/day for 3 days (procedure A, saline), read-out: Percentage increase in life-span (ILS)) was more than 530%. In addition, the ILS at 30 mg/kg (Mus musculus, L1210, ip, 72 h, 30 mg/kg i.p. once/day for 3 days (procedure A, saline), read-out: Percentage increase in life-span (ILS)) came out at 19.6%.

Take `CN(N=O)C(=O)N[C@@H]1O[C@H](CO)[C@@H](O)[C@H](O)[C@H]1O` [Compound 11, 1-(β-D-glucopyranosyl)-3-methyl-3-nitrosourea, reference compound]: the “Survival days, Treated (mean)” value under setting [14] came to 12.0 days; the “Survival days, Treated (mean)” value under setting [15] was found to be 13.9 days; the “Survival days, Treated (mean)” value under setting [16] was 14.1 days; the “Survival days, Treated (mean)” value under setting [17] was determined as 16.6 days. Besides, the “Volume of ascites, Treated” value by setting is: under setting [14], 2.8; under setting [15], 4.6; under setting [16], 1.9; under setting [17], 1.4. Moreover, the ILS at 50 mg/kg (Mus musculus, L1210, ip, 72 h, 50 mg/kg i.p. once/day for 3 days (procedure A, saline), read-out: Percentage increase in life-span (ILS)) worked out at 55.6%. For the same molecule, the ILS at 100 mg/kg (Mus musculus, L1210, ip, 72 h, 100 mg/kg i.p. once/day for 3 days (procedure A, saline), read-out: Percentage increase in life-span (ILS)) was 80.7%. Also, the ILS at 150 mg/kg (Mus musculus, L1210, ip, 72 h, 150 mg/kg i.p. once/day for 3 days (procedure A, saline), read-out: Percentage increase in life-span (ILS)) is 83.4%. Under “Mus musculus, L1210, ip, 72 h, 200 mg/kg i.p. once/day for 3 days (procedure A, saline), read-out: Percentage increase in life-span (ILS)”, the ILS at 200 mg/kg was found to be 108%.
